Data from patent publication US20230103444A1 (The Regents of the University of Colorado, a Body Corporate, priority 2020, published 2023).
Read-outs that look alike come from different tables or passages of the source.

Assays:
[1] = molecular target: T1, cat-CHD1L ATPase (Homo sapiens, UniProt Q86WJ1); assay: CHD1L ATPase assay with recombinant catalytic domain (cat-CHD1L); format: biochemical; conditions: for inhibition at 20 µM: confirmed HTS hits, HTS at 20 μM, read-out: inhibition against cat-CHD1L ATPase
T1 construct: inferred from Ni-NTA / imidazole purification; made in house; host or cells: E. coli Rosetta 2 (DE3) pLysS; constructs were a gift from Helena Berglund, Karolinska Institute
T1 sequence (Q86WJ1 16-611 limits assumed): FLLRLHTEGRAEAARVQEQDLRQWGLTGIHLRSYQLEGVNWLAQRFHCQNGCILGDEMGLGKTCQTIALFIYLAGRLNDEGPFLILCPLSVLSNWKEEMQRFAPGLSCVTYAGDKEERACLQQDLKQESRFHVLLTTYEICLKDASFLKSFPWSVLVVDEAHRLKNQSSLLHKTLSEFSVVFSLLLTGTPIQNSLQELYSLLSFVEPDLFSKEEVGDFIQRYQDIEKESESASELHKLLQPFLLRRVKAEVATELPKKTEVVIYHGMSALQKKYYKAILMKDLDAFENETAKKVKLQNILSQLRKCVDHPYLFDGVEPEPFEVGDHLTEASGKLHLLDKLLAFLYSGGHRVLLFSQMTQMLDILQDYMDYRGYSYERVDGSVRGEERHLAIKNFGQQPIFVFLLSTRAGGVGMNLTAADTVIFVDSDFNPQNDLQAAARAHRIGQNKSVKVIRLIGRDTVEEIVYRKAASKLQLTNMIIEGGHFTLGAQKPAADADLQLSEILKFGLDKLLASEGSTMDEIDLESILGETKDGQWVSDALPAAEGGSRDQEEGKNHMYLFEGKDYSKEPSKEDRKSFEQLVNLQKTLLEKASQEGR
Method: All reactions were carried out using low volume non-binding surface 384-well plates (Corning Inc., Corning N.Y.). cat-CHD1L or fl-CHD1L (100 nM) and 200 nM c-Myc DNA or mononucelosome (Active Motif, Carlsbad, Calif.) were added to a buffer containing 50 mM Tris pH 7.5, 50 mM NaCl, 1 mM DTT, 5% glycerol, and the reaction was initiated by the addition of 10 μM ATP (New England Biolabs, Ipswich, Mass.) to a total volume of 10 μL and incubated at 37° C. for 1 h. ATPase activity was assayed by adding 500 nM of Phosphate Sensor (Life Technologies, Carlsbad, Calif.), containing labeled phosphate-binding protein, specifically labeled with the fluorophore MDCC, and measuring excitation (430 nm) and emission (450 nm) immediately on an EnVision® plate reader (PerkinElmer, Hopkinton, Mass.). An inorganic phosphate standard curve was used to convert the fluorescence to [Pi], and enzyme kinetics were determined using Prism8 (GraphPad Software, San Diego, Calif.).
Assay composition was the same as described above using cat-CHD1L, except that the reaction mixture volume was modified to accommodate addition of drug or DMSO. Using a Janus® liquid handler (PerkinElmer, Hopkinton, Mass.), a selected amount of compounds dissolved in 100% DMSO were mixed with 50 mM Tris pH 7.5, 50 mM NaCl, 1 mM DTT, 5% glycerol buffer to 200 μM in 10% DMSO. […] The negative control used was 1% DMSO and 10 mM EDTA was used as a positive control. Reactions were initiated with the addition of 10 μM ATP and incubated at 37° C. for 1 h. ATPase activity was measured by fluorescence by adding 500 nM Phosphate Sensor. cat-CHD1L was screened against a 20,000-compound diversity set from Life Chemicals (Woodbridge, Conn.) and a Kinase Inhibitor library from Selleck Chemicals (Houston, Tex.).
CHD1L Enzyme ATPase Assay. […] All reactions were carried out using low volume nonbinding surface 384-well plates (Corning Inc., Corning, N.Y.). […] The reaction was initiated by the addition of 10 μmol/L ATP (New England Biolabs, Ipswich, Mass.) to a total volume of 10 μL and incubated at 37° C. for 1 hour. ATPase activity was measured by adding 500 nmol/L of Phosphate Sensor (ThermoFisher, Waltham, Mass.) measuring excitation (430 nm) and emission (450 nm) immediately on an Envision plate reader (PerkinElmer, Waltham, Mass.). Background signal was determined by using all assay components excluding the enzyme.

[2] = tested on: SW620 tumor organoids; assay: Tumor organoid cytotoxicity (CellTiter-Glo 3D)
[3] = tested on: HCT116 tumor organoids; assay: Tumor organoid cytotoxicity (CellTiter-Glo 3D); format: cell-based, human; conditions: Homo sapiens
Method: Cell based cytotoxicity dose response and combination studies. […] Plates were then incubated for 3 days before treatment.
Cell Line Tumor Organoid Culture.
Tumor Organoid Cytotoxicity.

[4] = Table 6, read-out: cat-CHD1L inhibition IC50
[5] = Homo sapiens, SW-620, 72 h, read-out: 3 D Cytotoxicity 72 hr IC50 (μM) SW620
[6] = Homo sapiens, SW-620, read-out: Tumor Organoid Cytotoxicity IC50 (μM) SW620
[7] = HCT-116, 72 h, Table 6, read-out: 3 D Cytotoxicity 72 hr IC50 (μM) HCT116
[8] = HCT-116, single agent, Table 4A, read-out: Tumor Organoid Cytotoxicity IC50 (μM) HCT116
[9] = units given with the values (nM, μM), read-out: activity in dose response studies against cat-CHD1L ATPase (IC50, FIG. 1A)

SMILES | IC50 [1, 4] | IC50 [2, 5] | IC50 [2, 6] | IC50 [3, 7] | other results
Cc1cc(Nc2ccc(NC(=O)CCCc3c[nH]c4ccccc34)cc2)nc(N2CCCC2)n1 [Compound 6.7, 4-(1H-indol-3-yl)-N-(4-((6-methyl-2-(pyrrolidin-1-yl)pyrimidin-4-yl)amino)phenyl)butanamide] |  | 13 µM | 12.7 µM | 17.6 µM | IC50 [3, 8]: 17.6 µM
Cc1cc(Nc2ccc(NC(=O)Cn3cc(CC4CC4)c4ccccc43)cc2)nc(N2CCCC2)n1 [Compound 6.26, 2-(3-(cyclopropylmethyl)-1H-indol-1-yl)-N-(4-((6-methyl-2-(pyrrolidin-1-yl)pyrimidin-4-yl)amino)phenyl)acetamide] |  | 4.7 µM | 5.5 µM |  | 
O=S(=O)(NCCN1CCOCC1)c1ccc(C2CCCCC2)cc1 [Compound 1] |  |  |  |  | inhibition at 20 µM [1]: > 50%; IC50 [1, 9]: 900 to 5000 nM
COc1ccc2[nH]cc(CC(=O)Nc3ccc(Nc4cc(C)nc(N5CCCC5)n4)cc3)c2c1 [Compound 6.22, 2-(5-methoxy-1H-indol-3-yl)-N-(4-((6-methyl-2-(pyrrolidin-1-yl)pyrimidin-4-yl)amino)phenyl) acetamide] |  |  |  |  | IC50 ([2]; read-out: 3 D Cytotoxicity 72 hr IC50 (μM) SW620, Table 6): 11.3 µM; IC50 ([2]; read-out: Tumor Organoid Cytotoxicity IC50 (μM) SW620, single agent, Table 4A, updated experimental, rounded to one decimal): 12.6 µM
Cc1cc(Nc2ccc(NC(=O)c3cn(C)c4ccccc34)cc2)nc(N2CCCC2)n1 [Compound 6.19, 1-methyl-N-(4-((6-methyl-2-(pyrrolidin-1-yl)pyrimidin-4-yl)amino)phenyl)-1H-indole-3-carboxamide] |  | 7.7 µM | 7.7 µM | > 40 µM | IC50 [3, 8]: > 30 µM
Cc1cc(Nc2ccc(NC(=O)CCc3c[nH]c4ccccc34)cc2)nc(N2CCCC2)n1 [Compound 6.6, 3-(1H-indol-3-yl)-N-(4-((6-methyl-2-(pyrrolidin-1-yl)pyrimidin-4-yl)amino)phenyl) propanamide] |  | > 40 µM | > 40 µM | > 40 µM | IC50 [3, 8]: > 30 µM
Cc1cc(Nc2ccc(NC(=O)Cc3cn(S(=O)(=O)c4ccc(C(F)(F)F)cc4)c4ccccc34)cc2)nc(N2CCCC2)n1 [Compound 6.29, N-(4-((6-methyl-2-(pyrrolidin-1-yl)pyrimidin-4-yl)amino)phenyl)-2-(1-((4-(trifluoromethyl)phenyl)sulfonyl)-1H-indol-3-yl)acetamide] |  | 5.4 µM | 5.1 µM |  | 
Cc1cc(Nc2ccc(NC(=O)Cc3c[nH]c4ncccc34)cc2)nc(N2CCCC2)n1 [Compound 6.20, N-(4-((6-methyl-2-(pyrrolidin-1-yl)pyrimidin-4-yl)amino)phenyl)-2-(1H-pyrrolo[2,3-b]pyridin-3-yl)acetamide] |  | 2.2 µM | 2.1 µM |  | 
Cc1cc(Nc2ccc(NC(=O)Cn3ccc4ccccc43)cc2)nc(N2CCCC2)n1 [Compound 6.24, 2-(1H-indol-1-yl)-N-(4-((6-methyl-2-(pyrrolidin-1-yl)pyrimidin-4-yl)amino)phenyl)acetamide] |  | 3 µM | 2.7 µM |  | 
Cc1cc(Nc2ccc(NC(=O)CC3C(=O)Nc4ccccc43)cc2)nc(N2CCCC2)n1 (stereo not drawn) [Compound 6.30, N-(4-((6-methyl-2-(pyrrolidin-1-yl)pyrimidin-4-yl)amino)phenyl)-2-(2-oxoindolin-3-yl) acetamide] |  | 6.1 µM | 6 µM |  | 
CCc1ccc2[nH]cc(CC(=O)Nc3ccc(Nc4cc(C)nc(N5CCCC5)n4)cc3)c2c1 [Compound 6.27, 2-(5-ethyl-1H-indol-3-yl)-N-(4-((6-methyl-2-(pyrrolidin-1-yl)pyrimidin-4-yl)amino)phenyl) acetamide] |  | 3 µM | 2.1 µM |  | 
Cc1cc(Nc2ccc(NC(=O)/C=C/c3c[nH]c4ccccc34)cc2)nc(N2CCCC2)n1 [Compound 6.8, (E)-3-(1H-indol-3-yl)-N-(4-((6-methyl-2-(pyrrolidin-1-yl)pyrimidin-4-yl)amino)phenyl)-acrylamide] |  | 4.3 µM | 3.6 µM | 6.8 µM | IC50 [3, 8]: 6.85 µM
COc1cc(C)c(C(C)C)cc1S(=O)(=O)NCCN1CCOCC1 [Compound 3] |  |  |  |  | inhibition at 20 µM [1]: > 50%; IC50 [1, 9]: 900 to 5000 nM
Cc1ccc(-c2ccc(S(=O)(=O)NCCN3CCOCC3)cc2)cc1C [Compound 2] |  |  |  |  | inhibition at 20 µM [1]: > 50%; IC50 [1, 9]: 900 to 5000 nM
Cc1cc(Nc2ccc(NC(=O)Cc3c[nH]c4ccc(O)cc34)cc2)nc(N2CCCC2)n1 [Compound 6.25, 2-(5-hydroxy-1H-indol-3-yl)-N-(4-((6-methyl-2-(pyrrolidin-1-yl)pyrimidin-4-yl)amino)phenyl) acetamide] |  | 17.6 µM | 19.7 µM |  | 
Cc1cc(Nc2ccc(NC(=O)Cc3c[nH]c4ccc(Br)cc34)cc2)nc(N2CCCC2)n1 [Compound 6.23, 2-(5-bromo-1H-indol-3-yl)-N-(4-((6-methyl-2-(pyrrolidin-1-yl)pyrimidin-4-yl)amino)phenyl) acetamide] |  |  | 5.7 µM |  | 

Second part, led by results:

IC50 [1, 4] | SMILES | IC50 [2, 5] | IC50 [2, 6] | IC50 [3, 7] | other results
> 20000 nM | Cc1cc(Nc2ccc(NC(=O)Cc3cc(Br)cs3)cc2)nc(N2CCCC2C(=O)O)n1 (stereo not drawn) [Compound 6.36] | > 20 µM |  |  | 
1200 nM | Cc1cc(NCc2ccc(NC(=O)Cc3cc(Br)cs3)cc2)nc(N2CCN(C)CC2)n1 [Compound 6.44] | 22.7 µM |  | 14 µM | 
700 nM | Cc1cc(NCc2ccc(NC(=O)Cc3cc(Br)cs3)cc2)nc(N2CCCCC2)n1 [Compound 6.46] | 12.5 µM |  | 8.3 µM | 
3000 nM | COC(=O)C1CCCN1c1nc(C)cc(Nc2ccc(NC(=O)Cc3cccs3)cc2)n1 (stereo not drawn) [Compound 6.34] | > 20 µM |  |  | 
> 20000 nM | Cc1cc(Nc2ccc(NC(=O)Cc3cc(Br)cs3)cc2)n2nc(N)nc2n1 [Compound 6.53] | > 40 µM |  | > 40 µM | 
4500 nM | Cc1cc(Nc2ccc(NC(=O)Cc3cc(Br)cs3)cc2)nc(N2CCN(C)CC2)n1 [Compound 6.48] | 21.8 µM |  | 7.6 µM | 
2300 nM | Cc1cc(Nc2ccc(NC(=O)Cc3cc(Br)cs3)cc2)nc(N2CCCCC2)n1 [Compound 6.49] | 17 µM |  | 14.7 µM | 
2500 nM | Cc1cc(NCc2ccc(NC(=O)Cc3cc(Br)cs3)cc2)n2nc(N3CCCC3)nc2n1 [Compound 6.56] | > 40 µM |  | > 40 µM | 
1800 nM | COC(=O)C1CCCN1c1nc(C)cc(Nc2ccc(NC(=O)Cc3cc(Br)cs3)cc2)n1 (stereo not drawn) [Compound 6.35] | 8.6 µM |  |  | CHD1L enzyme inhibition, in words ([1]; recombinant cat-CHD1L): good enzyme inhibition; IC50 ([2]; Homo sapiens, SW-620, read-out: IC50 of cytotoxicity in SW620 cells): < 10 µM
17700 nM | Cc1cc(Nc2ccc(NC(=O)Cc3ccccn3)cc2)nc(N2CCCC2)n1 [Compound 6.42] |  |  | 20.9 µM | 
10300 nM | Cc1cc(Nc2ccc(NC(=O)Cc3cccnc3)cc2)nc(N2CCCC2)n1 [Compound 6.43] |  |  | 19.1 µM | 
